Tests used:
[1] = test system: OG2 MEFs; assay: iPSC derivation from 4F (OSKM)-transduced OG2 MEFs in iSF1 media (Oct4-GFP colonies); assay type: cell-based, mouse
Protocol: Recently, a serum-free media (iSF1) was developed to facilitate the generation of mouse iPSCs (39). The effect of compound OAC1 in the 4F-induced reprogramming was tested in iSF1 media. OG2 MEFs, derived from transgenic mice expressing the Oct4 promoter-driven GFP reporter (Oct4-GFP) (40), were transduced with retroviruses expressing the 4F reprogramming factors, Oct4, Sox2, Klf4, and c-Myc. The 4F-transduced cells were transferred to iSF1 media two days after viral transduction and this day was designated as day 0 (FIG. 3A). Treatment of compound OAC1 started on day 1 and lasted for 7 days. […] At day 5, a more than 3-fold increase in the number of GFP-positive colonies was detected in OAC1-treated, 4F-transduced cells (4F+OAC1), compared to vehicle-treated, 4F-transduced cells (FIG. 3B, C). […] The number of GFP-positive colonies in 4F-treated cells at day 8 (average of 200) was less than the number of GFP-positive colonies in 4F+OAC1-treated cells at day 5 (average of 350) (FIG. 3B, C).
iPSC Derivation in iSF1 Media: OG2 MEFs were seeded onto 6-well plates at the density of 3×10^4 cells per well in DMEM medium with 10% FBS, 0.1 mM NEAA, and 0.1 mM L-glutamine, 24 hr before transduction. Freshly prepared viruses of the 4F, Oct4, Sox2, c-Myc, and Klf4, were added to the cells. Two days after viral infection, the transduced OG2 MEFs were split into new 6-well plates with irradiated MEF feeders and cultured in iSF1 reprogramming media containing high glucose DMEM, 10% knockout serum, 0.5% N2, 5 ng/ml b-FGF, 2 mM L-glutamine, 0.1 mM 2-mercaptoethanol, 0.1 mM NEAA and 1000 U/ml of LIF. This day was defined as day 0. On day 1, 1 μM of each compound (OAC1, OAC2, and OAC3) was added to the 4F-transduced OG2 MEFs. Treatment was continued for 1 week. When iPSC colonies emerged, these colonies were picked for expansion on the irradiated MEF feeders in mouse ESC medium.

[2] = test system: Sox2; assay: RT-PCR of Sox2 mRNA in treated MEFs; assay type: cell-based, mouse; details: versus vehicle
Protocol: (§1) MEFs were treated with vehicle control or OAC 1 to test whether OAC 1 activates endogenous Oct4 and Nanog gene transcription. […] Oct4, Sox2, and Nanog are central to the transcriptional regulatory hierarchy for ESC pluripotency, forming the core transcriptional regulatory circuitry in ESCs (37). […] OAC1 activated Sox2 mRNA expression, along with Oct4 and Nanog (FIG. 61).
(§2) RT-PCR analysis: Total RNA was purified with Trizol reagent (Invitrogen). Reverse transcription was performed with 1 μg of RNA using Omniscript® Reverse Transcription Kit (Qiagen). Quantitative PCR was performed using iTaq SYBR Green Supermix with Rox (Bio-rad) in Applied Biosystem Step one plus real-time PCR system. […]

[3] = test system: endogenous Oct4; assay: RT-PCR of endogenous Oct4 mRNA in treated MEFs; assay type: cell-based, mouse; details: versus vehicle
Protocol: as §1, §2

[4] = molecular target: luciferase (Photinus pyralis, UniProt P08659); assay: inhibition of luciferase activity at 1 μM (applicant's observation)
Sequence of luciferase (P08659 whole entry): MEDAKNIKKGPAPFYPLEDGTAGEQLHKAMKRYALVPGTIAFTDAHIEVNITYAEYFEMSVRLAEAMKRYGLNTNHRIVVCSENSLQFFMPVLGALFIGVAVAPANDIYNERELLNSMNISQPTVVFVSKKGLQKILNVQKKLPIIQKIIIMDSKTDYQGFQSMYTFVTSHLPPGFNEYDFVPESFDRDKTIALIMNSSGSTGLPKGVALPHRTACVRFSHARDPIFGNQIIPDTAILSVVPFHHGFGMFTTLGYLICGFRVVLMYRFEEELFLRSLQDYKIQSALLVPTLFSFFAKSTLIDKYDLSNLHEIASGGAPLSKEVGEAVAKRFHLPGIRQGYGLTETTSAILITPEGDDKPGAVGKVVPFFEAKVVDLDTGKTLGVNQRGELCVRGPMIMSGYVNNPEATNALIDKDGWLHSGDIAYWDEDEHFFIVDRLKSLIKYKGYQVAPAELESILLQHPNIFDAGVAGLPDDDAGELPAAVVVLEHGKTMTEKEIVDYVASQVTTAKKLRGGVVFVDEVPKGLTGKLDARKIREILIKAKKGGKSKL
Text: OAC1 and related analogs belong to a structural class of 5-substituted pyrrolo[2,3-b]pyridine- and indole-based benzamides. Very little is reported about their biological activities. […] However, in a different assay called ATLAS (any target ligand affinity screen), no inhibition was detected (49).

[5] = test system: p21; assay: RT-PCR of p21 expression in treated MEFs; assay type: cell-based, mouse; details: MEFs treated for two days
Protocol: Inhibition of the p53-p21 signaling increased reprogramming efficiency (26, 28-31, 41). To investigate whether compound OAC1 enhanced reprogramming efficiency by affecting this pathway, MEFs were treated with vehicle control or OAC1 and determined the expression level of p53 and p21 in the treated cells.
as §2

O=C(Nc1cc2cc[nH]c2cn1)c1ccccc1 [OAC1, N-(1H-6-azaindol-5-yl)benzamide]
Colony numbers ([1]; MEFs in iSF1 media, OSKM, seeding 3 × 10^4, day 8, 1 μM compound): 800 | Reprogramming efficiency ([1]; MEFs in iSF1 media, OSKM, seeding 3 × 10^4, day 8, colony numbers divided by seeding cell numbers): 2.75% | day at which GFP+ colonies started to appear ([1]; iSF1 media, 4F+compound, days after transfer to iSF1 media): 3 days | increase in the number of GFP-positive colonies compared to vehicle-treated 4F-transduced cells ([1]; iSF1 media, day 5): more than 3 fold | number of GFP-positive colonies (average) ([1]; iSF1 media, day 5): 350 | reprogramming efficiency of 4F+compound relative to 4F alone in the initial Yamanaka study ([1]; not a direct comparison): more than 20 fold | Sox2 mRNA expression [2]: activated | endogenous Oct4 mRNA expression [3]: activated | inhibition of luciferase activity [4]: no inhibition | p21 expression level versus DMSO [5]: no significant difference

Source: US8962322B2, “Enhancers of induced pluripotent stem cell reprogramming” (City of Hope, priority 2012, dated 2015)
